Data: US10730887B2, “Compound containing tricyclic heteroaryl group” (Hangzhou Innogate Pharma Co., Ltd., priority 2016, dated 2020)

Columns and labels:
CDK6/cycD3 = CDK6/cycD3 (Homo sapiens, UniProt Q00534); test: CDK6 kinase activity inhibition, Caliper mobility shift assay; assay type: biochemical
Protocol: (§1) CDK2/CycA2, CDK4/CycD3 and CDK6/cycD3 protein kinase activities were determined using the Caliper mobility shift assay. The compound was dissolved in DMSO and diluted with kinase buffer (CDK2/CycA2 and CDK6/cycD3 with 50 mM HEPES (pH 7.5), 10 mM MgCl2, 0.0015% Brij-35, and 2 mM dithiothreitol; CDK4/CycD3 with 20 mM HEPES (pH 7.5), 10 mM MgCl2, 0.01% Triton X-100, and 2 mM dithiothreitol), 5 μl of a 5-fold final concentration of the compound (10% DMSO) was added to a 384-well plate. Add 10 μL of 2.5-fold […] enzyme solution and incubate for 10 minutes at room temperature, then add 10 μL of 2.5-fold substrate solution (corresponding enzyme and substrate concentration CDK2/CycA2 12 nM, ATP Kin 39 μM; CDK4/CycD3 10 nM, ATP Km 221 μM; CDK6/cycD3 15 nM, ATP Km […]) Incubate at 28° C. (60 min CDK2, 180 min CDK4, 60 min CDK6) followed by 25 μl stop solution (100 mM HEPES (pH 7.5), 0.015% Brij-35, 0.2% Coating Reagent #3, 50 mM EDTA) Stop the reaction. Conversion rate data was read on a Caliper EZ Reader 11 (Caliper Life Sciences). The conversion rate was converted into inhibition rate data (% inhibition rate=(max−conversion rate)/(max−min)*100) Where max is the conversion of the DMSO control and min is the conversion of the enzyme-free control. Curves were plotted with compound concentration and inhibition rate on the horizontal and vertical coordinates, and the curve was fitted using XLFit excel add-in version 4.3.1 software and IC50 was calculated.

CDK4/CycD3 = CDK4/CycD3 (Homo sapiens, UniProt P11802); test: CDK4 kinase activity inhibition, Caliper mobility shift assay; assay type: biochemical
Chain of CDK4/CycD3 (P11802 whole entry, species assumed): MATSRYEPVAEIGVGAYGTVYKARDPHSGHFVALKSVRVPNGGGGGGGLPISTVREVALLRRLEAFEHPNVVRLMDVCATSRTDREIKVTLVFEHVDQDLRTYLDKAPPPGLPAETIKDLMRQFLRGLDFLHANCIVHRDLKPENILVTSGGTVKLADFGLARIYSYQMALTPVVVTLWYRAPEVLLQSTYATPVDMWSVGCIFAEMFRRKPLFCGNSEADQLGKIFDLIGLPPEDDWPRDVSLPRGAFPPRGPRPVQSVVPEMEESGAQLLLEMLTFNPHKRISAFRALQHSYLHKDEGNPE
Chain of CDK4/CycD3 (P30281 whole entry partner, species assumed): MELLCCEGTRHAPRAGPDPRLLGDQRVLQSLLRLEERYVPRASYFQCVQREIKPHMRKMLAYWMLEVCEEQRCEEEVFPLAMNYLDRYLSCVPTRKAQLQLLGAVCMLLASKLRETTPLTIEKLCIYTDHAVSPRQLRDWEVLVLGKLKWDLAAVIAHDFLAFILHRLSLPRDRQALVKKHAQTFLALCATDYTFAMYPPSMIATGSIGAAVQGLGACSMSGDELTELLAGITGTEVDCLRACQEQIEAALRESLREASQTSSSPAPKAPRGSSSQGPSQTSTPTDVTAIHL
Protocol: as §1

CDK2/CycA2 = CDK2/CycA2 (Homo sapiens, UniProt P24941); test: CDK2 kinase activity inhibition, Caliper mobility shift assay; assay type: biochemical
Protocol: as §1

[1] = Pharmacokinetic study in mice, intragastric administration; assay type: in vivo; conditions: mouse, male ICR mice, PO dose 5 mg/kg, plasma
Protocol: Instrument: API4000+LC/MS instrument manufactured by AB Sciex. All measurement data was collected and processed by Analyst 1.6.3 software, and data was calculated and processed by Microsoft Excel. Using the DAS 3.2.8 software, the statistical moment method was used to calculate the pharmacokinetic parameters. t mainly includes kinetic parameters Tmax, T½, Cmax, AUC(0-t) and the like Column: ACQUITY UPLC BEH C18 (2.1 mm×50 mm, 1.7 μm), column temperature 40° C.; mobile phase A is water (0.1% formic acid+5 mM ammonium acetate), mobile phase B is acetonitrile (0.1% acetic acid). The flow rate was 0.30 ml/min and the isocratic elution of 90% B was maintained for 1.5 minutes. Injection volume: 5 μL.
Animals: 12 male ICR mice, weighing 22-26 g, were used after 2 days of feeding in the laboratory of the experimental animal center. They were fasted 12 hours before the administration and 4 hours after the administration, and were free to drink during the test. Mice were randomly divided into four groups of 3 animals each. After intragastric administration, blood samples were taken at two different time points in each group.
Solvent: 0.5% Methylcellulose (aqueous solution containing 0.4% Tween 80). Formulation of intragastric administration solution. The compound is accurately weighed, added to the solvent, and sonicated at room temperature for 5 minutes to completely dissolve the drug to prepare a drug solution of 0.33 mg/ml.
Drug sample: A representative compound of the structure represented by the patent formula (I) of the present invention generally adopts a plurality of samples having similar structures (molecular weight difference of more than 2 units), accurately weighed, and administered together (cassette PK). This allows multiple compounds to be screened simultaneously and their oral absorption rates compared. Single drug administration was also used to study the pharmacokinetics of drug samples in mice.
Blood was taken from the eyelids at 0.25, 0.5, 1, 2, 4, 8, 12, and 24 hours after intragastric administration. In the heparin-treated tube, the supernatant was centrifuged for LC-MS/MS analysis.
Accurately weigh the compounds to different concentrations, perform quantitative analysis on the mass spectrometer to establish a standard curve, and then test the concentration of the compound in the above plasma to obtain the concentration of the compound at different time points. All the measured data were collected and processed by the relevant software, and the statistical moment method was used to calculate the pharmacokinetic parameters (mainly including the kinetic parameters Tmax, T1/2, Cmax, AUC(0-t), etc.).

FLT3 = molecular target: T1, FLT3 (Homo sapiens, UniProt P36888); test: FLT3 kinase activity inhibition, Caliper mobility shift assay; assay type: biochemical
T1 sequence (P36888 27-993): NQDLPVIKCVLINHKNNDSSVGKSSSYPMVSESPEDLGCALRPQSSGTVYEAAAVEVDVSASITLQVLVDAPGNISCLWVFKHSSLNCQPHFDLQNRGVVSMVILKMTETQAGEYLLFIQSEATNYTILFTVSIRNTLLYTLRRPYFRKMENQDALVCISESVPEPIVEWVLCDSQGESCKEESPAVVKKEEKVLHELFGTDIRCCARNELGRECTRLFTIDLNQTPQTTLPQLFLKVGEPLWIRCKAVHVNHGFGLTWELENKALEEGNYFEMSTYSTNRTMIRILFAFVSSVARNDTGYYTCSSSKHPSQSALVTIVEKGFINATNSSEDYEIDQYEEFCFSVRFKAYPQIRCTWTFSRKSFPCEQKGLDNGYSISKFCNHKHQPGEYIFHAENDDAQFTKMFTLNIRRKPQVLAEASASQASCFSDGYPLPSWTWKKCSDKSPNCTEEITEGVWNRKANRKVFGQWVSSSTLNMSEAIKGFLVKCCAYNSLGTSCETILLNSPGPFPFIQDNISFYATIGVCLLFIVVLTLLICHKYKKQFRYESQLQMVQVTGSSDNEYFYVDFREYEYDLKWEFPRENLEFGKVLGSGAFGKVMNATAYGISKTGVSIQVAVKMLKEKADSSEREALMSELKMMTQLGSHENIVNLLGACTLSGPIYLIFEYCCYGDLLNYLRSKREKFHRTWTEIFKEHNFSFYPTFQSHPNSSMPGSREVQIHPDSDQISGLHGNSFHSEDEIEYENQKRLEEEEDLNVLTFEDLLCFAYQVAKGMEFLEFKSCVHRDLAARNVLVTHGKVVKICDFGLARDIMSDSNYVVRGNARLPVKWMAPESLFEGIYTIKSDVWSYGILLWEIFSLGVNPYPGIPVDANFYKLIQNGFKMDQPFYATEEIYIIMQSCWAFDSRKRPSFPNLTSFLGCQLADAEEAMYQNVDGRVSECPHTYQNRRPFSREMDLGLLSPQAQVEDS
Protocol: FLT3 protein kinase activity was measured using the Caliper mobility shift assay. The compound was dissolved in DMSO and diluted with a kinase buffer (50 mM HEPES, pH 7.5, 0.0015% Brij-35, 2 mM DTT), and 5 μL of a 5-fold final concentration of the compound (10% DMSO) was added to a 384-well plate. After adding 10 μL of 2.5-fold FLT3 enzyme solution, incubate for 10 minutes at room temperature, and then add 10 μL of a 2.5-fold substrate (FAM-labeled polypeptide and ATP) solution. After incubation at 28° C. for 60 minutes, the reaction was stopped by adding 25 μL of stop solution (100 mM HEPES, 0.015% Brij-35, 0.2% Coating Reagent #3, 50 mM EDTA, pH 7.5). Conversion rate data was read on a Caliper EZ Reader II (Caliper Life Sciences). The conversion rate was converted into inhibition rate data (% inhibition rate=(max−conversion rate)/(max−min)*100). Where max is the conversion of the DMSO control and min is the conversion of the enzyme-free control Curves were plotted with compound concentration and inhibition rate on the horizontal and vertical coordinates, and the curve was fitted using XLFit excel add-in version 4.3.1 software and IC50 was calculated.

Axl = molecular target: T2, Axl (Homo sapiens, UniProt P30530); test: Axl kinase activity inhibition, Caliper mobility shift assay; assay type: biochemical
T2 sequence (P30530 26-894): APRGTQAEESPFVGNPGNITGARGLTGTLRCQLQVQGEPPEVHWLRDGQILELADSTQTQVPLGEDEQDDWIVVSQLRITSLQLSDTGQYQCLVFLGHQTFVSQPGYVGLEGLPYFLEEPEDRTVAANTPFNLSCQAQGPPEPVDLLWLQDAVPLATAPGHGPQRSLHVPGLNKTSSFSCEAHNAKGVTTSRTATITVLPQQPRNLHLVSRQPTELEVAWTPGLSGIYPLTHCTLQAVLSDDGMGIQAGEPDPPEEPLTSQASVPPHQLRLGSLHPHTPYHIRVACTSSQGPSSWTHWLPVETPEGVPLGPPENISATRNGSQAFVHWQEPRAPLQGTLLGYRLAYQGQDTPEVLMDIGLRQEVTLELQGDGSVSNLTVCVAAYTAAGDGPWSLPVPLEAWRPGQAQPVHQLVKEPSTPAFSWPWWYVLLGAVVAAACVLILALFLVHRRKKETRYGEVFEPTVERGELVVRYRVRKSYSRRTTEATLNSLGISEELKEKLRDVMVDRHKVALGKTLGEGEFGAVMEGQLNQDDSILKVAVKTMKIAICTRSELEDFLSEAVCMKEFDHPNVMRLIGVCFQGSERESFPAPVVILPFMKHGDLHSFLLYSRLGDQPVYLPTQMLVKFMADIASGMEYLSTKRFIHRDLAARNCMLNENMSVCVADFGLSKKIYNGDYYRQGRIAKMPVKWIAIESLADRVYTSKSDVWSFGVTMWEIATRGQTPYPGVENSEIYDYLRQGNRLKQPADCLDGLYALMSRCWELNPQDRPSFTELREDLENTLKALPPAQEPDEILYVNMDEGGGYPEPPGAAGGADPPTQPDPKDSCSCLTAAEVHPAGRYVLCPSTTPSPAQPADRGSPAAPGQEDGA
Protocol: Axl protein kinase activity was determined using the Caliper mobility shift assay. The compound was dissolved in DMSO and diluted with kinase buffer (50 mM HEPES, pH 7.5, 0.0015% Brij-35, 2 mM DTT), and 5 μL of 5 times the final concentration of the compound (10%) was added to the 384-well plate. DMSO). After adding 10 μL of a 2.5-fold Axl enzyme solution, incubate for 10 minutes at room temperature, and then add 10 μL of a 2.5-fold substrate (FAM-labeled polypeptide and ATP) solution. After incubation at 28° C. for 60 minutes, the reaction was stopped by the addition of […] stop solution (100 mM HEPES, 0.015% Brij-35, 0.2% Coating Reagent #3, 50 mM EDTA, pH 7.5). Conversion rate was read on a Caliper EZ Reader II (Caliper Life Sciences). The conversion rate was converted into inhibition rate (% inhibition rate=(max−conversion rate)/(max−min)*100). Where max is the conversion of the DMSO control and min is the conversion of the enzyme-free control. Curves were plotted with compound concentration and inhibition rate on the horizontal and vertical coordinates, and the curve was fitted using XLFit excel add-in version 4.3.1 software and IC50 was calculated.

FAK = FAK (Homo sapiens, UniProt Q05397); test: FAK kinase activity inhibition, Latha screen analysis; assay type: biochemical
Chain of FAK (Q05397 whole entry, species assumed): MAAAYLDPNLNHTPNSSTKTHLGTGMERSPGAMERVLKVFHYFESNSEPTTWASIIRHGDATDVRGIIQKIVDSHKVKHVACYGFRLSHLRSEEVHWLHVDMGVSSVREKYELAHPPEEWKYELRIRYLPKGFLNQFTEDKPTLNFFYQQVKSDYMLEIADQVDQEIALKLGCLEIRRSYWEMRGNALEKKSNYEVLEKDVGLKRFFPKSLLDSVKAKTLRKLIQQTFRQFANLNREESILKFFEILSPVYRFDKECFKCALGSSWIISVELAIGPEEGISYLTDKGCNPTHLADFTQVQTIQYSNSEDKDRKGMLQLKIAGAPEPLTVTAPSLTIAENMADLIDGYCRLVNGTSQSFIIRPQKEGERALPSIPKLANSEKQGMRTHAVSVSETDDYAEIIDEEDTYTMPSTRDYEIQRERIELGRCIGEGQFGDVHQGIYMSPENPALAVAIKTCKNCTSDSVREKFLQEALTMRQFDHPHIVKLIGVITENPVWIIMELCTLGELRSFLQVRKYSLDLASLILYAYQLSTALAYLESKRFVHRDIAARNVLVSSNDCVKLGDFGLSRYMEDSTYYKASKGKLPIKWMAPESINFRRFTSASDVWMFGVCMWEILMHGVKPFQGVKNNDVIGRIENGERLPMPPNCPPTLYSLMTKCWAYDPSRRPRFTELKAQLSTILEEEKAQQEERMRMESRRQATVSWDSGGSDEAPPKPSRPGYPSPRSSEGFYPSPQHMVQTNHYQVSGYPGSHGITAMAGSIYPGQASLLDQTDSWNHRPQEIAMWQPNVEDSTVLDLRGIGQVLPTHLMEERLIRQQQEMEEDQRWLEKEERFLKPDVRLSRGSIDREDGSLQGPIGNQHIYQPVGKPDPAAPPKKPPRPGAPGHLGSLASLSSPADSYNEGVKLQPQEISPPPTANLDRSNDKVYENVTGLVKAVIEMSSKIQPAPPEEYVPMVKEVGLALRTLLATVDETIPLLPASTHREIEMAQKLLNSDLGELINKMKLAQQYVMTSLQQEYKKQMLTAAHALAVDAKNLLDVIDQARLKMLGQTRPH
Protocol: FAK protein kinase activity was determined by Latha screen analysis. The compound was dissolved in DMSO and diluted with kinase buffer (25 mM HEPES, pH 7.5, 0.01 mM Triton, 10 mM MgCl2, 0.5 mM EGTA, 0.01% BRIJ-35, 2 mM DTT), 2.5 μL was added to the 384-well plate 4 times the final concentration of the compound (4% DMSO). After adding 5 μL of 2-fold FAK enzyme solution, incubate for 10 minutes at room temperature, and then add 2.5 μL of 4 times substrate (Fluorescein-polyGT and ATP) solution. After incubating for 30 minutes at 25° C., 10 μL of the detection solution (antibody of phosphorylation site 2 nM and EDTA 10 mM) was added to terminate the reaction. The data emitted at […] and emitted at 520 nm was read from Envision, and the luminescence reading data was copied from the Envision program, and the value of the luminescence reading was converted to the percent inhibition by a formula. The conversion rate was converted into inhibition rate data (% inhibition rate=(max−conversion rate)/(max−min)*100). “min” is the control fluorescence reading for the reaction without enzyme: “max” is the fluorescence reading of the sample with DMSO added as a control. Curves were plotted with compound concentration and inhibition rate on the horizontal and vertical coordinates, and the curve was fitted using XLFit excel add-in version 4.3.1 software and IC50 was calculated.

Chain of CDK6/cycD3 (Q00534 whole entry, species assumed): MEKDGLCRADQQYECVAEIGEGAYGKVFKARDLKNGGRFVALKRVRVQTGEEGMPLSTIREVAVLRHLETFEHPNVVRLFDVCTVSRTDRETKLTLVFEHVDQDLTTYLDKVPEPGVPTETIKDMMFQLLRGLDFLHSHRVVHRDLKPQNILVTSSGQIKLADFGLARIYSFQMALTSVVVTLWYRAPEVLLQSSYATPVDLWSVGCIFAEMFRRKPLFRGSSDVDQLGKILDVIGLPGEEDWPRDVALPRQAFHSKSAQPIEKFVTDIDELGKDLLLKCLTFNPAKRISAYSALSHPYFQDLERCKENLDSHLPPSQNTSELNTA
Chain of CDK6/cycD3 (P30281 whole entry partner, species assumed): as the sequence (P30281 whole entry partner, species assumed) above

Row | IC50 (CDK6/cycD3) [nM] | IC50 (CDK4/CycD3) [nM] | IC50 (CDK2/CycA2) [nM] | IC50 (FLT3) [nM] | IC50 (Axl) [nM] | SMILES | also measured
1 | < 50 | < 10 | < 10 | – | – | Cc1nc2c(F)cc(-c3nc(Nc4ccc5c(c4)OC[C@H]4CN(C)CCN54)ncc3F)cc2n1C(C)C [Compound B1R] | –
2 | < 50 | < 10 | < 10 | – | – | Cc1nc2c(F)cc(-c3nc(Nc4ccc5c(c4)OC[C@@H]4CN(C)CCN54)ncc3F)cc2n1C(C)C [Compound B1S] | –
3 | < 50 | < 10 | < 10 | – | – | Cc1nc2c(F)cc(-c3nc(Nc4ccc5c(c4)OC[C@H]4CN(C6CCOCC6)CCN54)ncc3F)cc2n1C(C)C [Compound B2R] | Cmax [1]: 495 ng/mL; Tmax [1]: 1 h; half-life [1]: 5.72 h; AUC(0-t) ([1]; read-out: AUC(0-24)): 2200 ng·h/mL
4 | < 10 | < 10 | < 10 | – | – | Cc1nc2c(F)cc(-c3nc(Nc4ccc5c(c4)OC[C@H]4CN(C6CCN(C)CC6)CCN54)ncc3F)cc2n1C(C)C [Compound B3R] | –
5 | – | – | – | < 1 | < 10 | CCc1nc(C(N)=O)c(Nc2ccc3c(c2)OC[C@H]2CN(C)CCN32)nc1NC1CCOCC1 [Compound D1R] | –
6 | – | – | – | < 1 | < 10 | CCc1nc(C(N)=O)c(Nc2ccc3c(c2)OC[C@@H]2CN(C)CCN32)nc1NC1CCOCC1 [Compound D1S] | –
7 | – | – | – | < 1 | < 10 | CCc1nc(C(N)=O)c(Nc2ccc3c(c2)OC[C@H]2CN(C4CCN(C)CC4)CCN32)nc1NC1CCOCC1 [Compound D6R] | –
8 | – | – | – | – | – | CNC(=O)c1ccccc1Nc1cc(Nc2ccc3c(c2)OC[C@H]2CN(C)CCN32)ncc1C(F)(F)F [Compound E1R] | IC50 (FAK): < 1 nM
9 | – | – | – | – | – | CNC(=O)c1ccccc1Nc1cc(Nc2ccc3c(c2)OC[C@@H]2CN(C)CCN32)ncc1C(F)(F)F [Compound E1S] | IC50 (FAK): < 1 nM
